Common to all, as to assay: DTP human tumour cell line panel, 48 h
In experiment [1] the test system is LXFL 529.
The subject of experiment [2] is KM12.
In experiment [3] the test system is HCC 2998.
Experiment [4] relates to A549.
Experiment [5] has as its system U-251.
The subject of experiment [6] is HOP-62.
Experiment [7] concerns MOLT-4.
For experiment [8], the system named is COLO 205.
Experiment [9] relates to Malme-3M.
For experiment [10], the system named is NCI-H460.
In experiment [11] the test system is SF-268.
The test system of experiment [12] is SN12C.
In experiment [13] the test system is HCT-15.
Experiment [14] concerns NCI-H23.
Experiment [15] has as its system SK-MEL-5.
For experiment [16], the system named is SK-MEL-28.
Experiment [17] has as its system OVCAR-8.
For experiment [18], the system named is HCT-116.

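48-hour exposure; five concentrations; linearly interpolated endpoints. GI50 is the concentration that inhibits growth by half.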 The source made the active and inactive calls. Rule as the data show it: active = GI50 up to about 1.1 µM and inactive = higher.

Broadly, the GI50 is the concentration at which growth is held to half of that of the control.

In the case of `CC(C)=CCC/C(C)=C/CC/C(C)=C/C1CCC(=O)C1(C)C` (stereo not drawn), the GI50 is 17.3 µM (inactive) in experiment [1]; 16.3 µM (inactive) in experiment [2]; 22.9 µM (inactive) in experiment [3]; 27 µM (inactive) in experiment [4]; 18.1 µM (inactive) in [5]; 26.5 µM (inactive) in experiment [6]. Besides, the GI50 was 22.8 µM (inactive) in [7]; 16.2 µM (inactive) in [8]; 18.3 µM (inactive) in [9]; 17.5 µM (inactive) in experiment [10]; 17.1 µM (inactive) in [11]; 16.2 µM (inactive) in experiment [12]. The GI50 is 15.5 µM in experiment [13]; 20.3 µM (inactive) in experiment [14]; 15.1 µM (inactive) in [15]; 22.1 µM (inactive) in experiment [16]; 19.6 µM (inactive) in experiment [17]; 17 µM (inactive) in experiment [18].

As to `C=C1C(=O)OC2C1C(OC(=O)/C(C)=C\C)CC1(CO1)C1C(O)C=C(C)C21O` (stereo not drawn), the GI50 in experiment [1] was 1.59 µM (inactive); in experiment [2], 11.5 µM (inactive); in experiment [3] it was 4.63 µM (inactive); in experiment [4], 20.6 µM (inactive); in [5], 12.2 µM (inactive); in experiment [6], 23.6 µM (inactive). Further, the GI50 in experiment [7] was 2 µM (inactive); in [8], 1.17 µM (inactive); in experiment [9] it was 2.74 µM (inactive); in [10], 14.3 µM (inactive); in experiment [11] it was 2.64 µM (inactive); in experiment [12] it was 3.27 µM (inactive). The GI50 in [13] is 2.81 µM; in [14] it was 7.19 µM (inactive); in experiment [15], 4.28 µM (inactive); in experiment [16], 2.93 µM (inactive); in experiment [17], 2.67 µM (inactive); in [18], 1.53 µM (inactive).

Regarding `CN1COc2c(n(C)c(=O)[nH]c2=O)C1`, the GI50 in experiment [1], in experiment [2], in experiment [3], in [4], in experiment [5] and in experiment [6] was > 100 µM (inactive) each time. Moreover, the GI50 was > 100 µM (inactive) in experiment [7]; 59 µM (inactive) in [8]; > 100 µM (inactive) in [9]; > 100 µM (inactive) in experiment [10]; > 100 µM (inactive) in experiment [11]; > 100 µM (inactive) in experiment [12]. Besides, the GI50 in [13] is 98.2 µM; in experiment [14], > 100 µM (inactive); in experiment [15], > 100 µM (inactive); in experiment [16] it was > 100 µM (inactive); in experiment [17] it was > 95.7 µM (inactive); in [18], 57.5 µM (inactive).

On to `CSc1nnc(CCC(=O)Nc2c(C)cccc2C)o1`, for which the GI50 in [1], in [2], in experiment [3], in experiment [4], in experiment [5] and in experiment [6] was > 100 µM (inactive) throughout. In addition, the GI50 in [7], in experiment [8], in [9], in experiment [10], in experiment [11] and in experiment [12] was > 100 µM (inactive) in each case. In addition, the GI50 was 50.8 µM in experiment [13]; > 100 µM (inactive) in [14]; > 100 µM (inactive) in experiment [15]; > 100 µM (inactive) in experiment [16]; > 100 µM (inactive) in experiment [17]; > 100 µM (inactive) in [18].

With `Nc1c([N+](=O)[O-])nc(Cl)c2nncn12`, the GI50 in experiment [1] was > 78.9 µM (inactive); in experiment [2] it was > 100 µM (inactive); in [3], > 100 µM (inactive); in experiment [4], > 100 µM (inactive); in experiment [5], > 71.9 µM (inactive); in [6], > 100 µM (inactive). In addition, the GI50 in experiment [7] is > 100 µM (inactive); in [8], > 43 µM (inactive); in experiment [9], > 100 µM (inactive); in [10], > 56.6 µM (inactive); in experiment [11], > 87.9 µM (inactive); in experiment [12] it was > 100 µM (inactive). For the same compound, the GI50 was 19.3 µM in [13]; > 100 µM (inactive) in experiment [14]; > 100 µM (inactive) in [15]; > 100 µM (inactive) in experiment [16]; > 100 µM (inactive) in experiment [17]; > 45 µM (inactive) in experiment [18].

With `C[C@]12CCc3nn(-c4ccccc4)nc3C1CC[C@@H]1C2CC[C@]2(C)C(=O)CCC12` (stereo partly drawn), the GI50 in experiment [1], in experiment [2], in experiment [3], in [4], in [5] and in experiment [6] was > 100 µM (inactive) in each case. Also, the GI50 in [7], in [8], in [9], in experiment [10], in [11] and in experiment [12] was > 100 µM (inactive) each time. For the same compound, the GI50 was more than 100 µM in experiment [13]; > 100 µM (inactive) in experiment [14]; > 100 µM (inactive) in experiment [15]; > 100 µM (inactive) in experiment [16]; 94.2 µM (inactive) in [17]; > 100 µM (inactive) in experiment [18].

These data come from ChEMBL document CHEMBL1201862, “PubChem BioAssay data set” (2004).
